Measured values published in patent publication US9115169B2, “Method of treating tumors” (Lytix Biopharma AS, priority 2000, dated 2015).
Converted amounts (≈) assume the structure as drawn. Where a SMILES comes first, the peptide text is derived from it. [ ]: non-standard residue; d: D form. The star is where a group is joined. Bip = N[C@@H](Cc1ccc(-c2ccccc2)cc1)C(=O)O; 2Nal = N[C@@H](Cc1ccc2ccccc2c1)C(=O)O; Tle = CC(C)(C)[C@H](N)C(=O)O; OBn = c1ccc(CO*)cc1

Legend:
MRSA ATCC 33591 [1] = tested on: MRSA ATCC 33591
Procedure: (§1) All strains were stored at −70° C. […] All assays were performed in duplicate.

MRSE ATCC 27626 [2] = tested on: MRSE ATCC 27626
Procedure: as §1

[3] = tested on: Staphylococcus aureus ATCC 25923; details: ATCC 25923
[4] = tested on: Staphylococcus aureus ATCC 25923; details: ATCC 25923; remark: listed apart in the source
MRSE ATCC 27626 [5] = details: ATCC 27626
Procedure: as §1

MRSA ATCC 33591 [6] = details: ATCC 33591
Procedure: as §1

[7] = tested on: Escherichia coli ATCC 25922; details: ATCC 25922
[8] = tested on: Escherichia coli ATCC 25922; details: ATCC 25922; remark: listed apart in the source

Procedure for P. aeruginosa: as §1

SMILES: N=C(N)NCCC[C@@H](N)C(=O)N[C@H](Cc1c[nH]c2ccccc12)C(=O)OCc1ccccc1 [rw OBz] (H-[dR]-[dW]-OBn)
- MBC MRSA (MRSA ATCC 33591 [1]): 75 µg/mL (≈ 166 µM)
- MBC MRSE (MRSE ATCC 27626 [2]): 25 µg/mL (≈ 55.5 µM)
- MIC S. aureus [3]: 50 µg/mL (≈ 111 µM)
- MBC S. aureus [4]: 75 µg/mL (≈ 166 µM)
- MIC MRSE (MRSE ATCC 27626 [5]): 20 µg/mL (≈ 44.4 µM)
- MIC MRSA (MRSA ATCC 33591 [6]): 50 µg/mL (≈ 111 µM)
- MIC E. coli [7]: >200 (>200) μg/ml
- MBC E. coli [8]: >200 (>200) μg/ml

SMILES: COC(=O)[C@H](CCCNC(=N)N)NC(=O)[C@@H](N)Cc1c[nH]c2ccccc12 [WR-OMe, H-L-Trp-L-Arg-OMe] (H-Trp-Arg-OMe)
- MBC MRSA (MRSA ATCC 33591 [1]): >200 (>200) μg/ml
- MBC MRSE (MRSE ATCC 27626 [2]): >200 (>200) μg/ml
- MBC S. aureus [4]: >200 (>200) μg/ml
- MBC E. coli [8]: >200 (>200) μg/ml

SMILES: N=C(N)NCCC[C@H](NC(=O)[C@H](N)Cc1c[nH]c2ccccc12)C(=O)N[C@@H](Cc1c[nH]c2ccccc12)C(=O)OCc1ccccc1 [wRW OBz] (H-[dW]-Arg-Trp-OBn)
- MBC MRSA (MRSA ATCC 33591 [1]): 20 (20) μg/ml
- MBC MRSE (MRSE ATCC 27626 [2]): 10 (10) μg/ml
- MIC S. aureus [3]: 20 (20) μg/ml
- MBC S. aureus [4]: 20 (20) μg/ml
- MIC MRSE (MRSE ATCC 27626 [5]): 10 (10) μg/ml
- MIC MRSA (MRSA ATCC 33591 [6]): 20 (20) μg/ml
- MIC E. coli [7]: 75 µg/mL (≈ 118 µM)
- MBC E. coli [8]: 100 µg/mL (≈ 157 µM)

SMILES: COC(=O)[C@H](CCCNC(=N)N)NC(=O)[C@@H](N)Cc1ccc(-c2ccccc2)cc1 [BipR-OMe] (H-[Bip]-Arg-OMe; N-terminus assumed)
- MIC P. aerug. (P. aeruginosa): >300.0 µg/mL
- MIC S. aureus [3]: 150.0 µg/mL (≈ 365 µM)
- MIC MRSE (MRSE ATCC 27626 [5]): 50.0 µg/mL (≈ 122 µM)
- MIC MRSA (MRSA ATCC 33591 [6]): 50.0 µg/mL (≈ 122 µM)
- MIC E. coli [7]: >300.0 µg/mL

SMILES: N=C(N)NCCC[C@H](NC(=O)[C@@H](N)Cc1c[nH]c2ccccc12)C(=O)N[C@@H](Cc1c[nH]c2ccccc12)C(=O)OCc1ccccc1 [WRW OBz] (H-Trp-Arg-Trp-OBn)
- MBC MRSA (MRSA ATCC 33591 [1]): 10 µg/mL (≈ 15.7 µM)
- MBC MRSE (MRSE ATCC 27626 [2]): 5 (5) μg/ml
- MIC S. aureus [3]: 5 (5) μg/ml
- MBC S. aureus [4]: 5 (5) μg/ml
- MIC MRSE (MRSE ATCC 27626 [5]): 5 (5) μg/ml
- MIC MRSA (MRSA ATCC 33591 [6]): 5 µg/mL (≈ 7.85 µM)
- MIC E. coli [7]: 75 µg/mL (≈ 118 µM)
- MBC E. coli [8]: 200 µg/mL (≈ 314 µM)

SMILES: NCCCC[C@H](N)C(=O)O[C@H](Cc1c[nH]c2ccccc12)C(=O)OCc1ccccc1 [Kψ(COO)wOBzl]
- Minimum inhibitory concentration P. aeruginosa (P. aeruginosa): 300 µg/mL (≈ 708 µM)
- Minimum inhibitory concentration S. aureus [3]: 50 µg/mL (≈ 118 µM)
- Minimum inhibitory concentration MRSE (MRSE ATCC 27626 [5]): 37.5 µg/mL (≈ 88.5 µM)
- Minimum inhibitory concentration MRSA (MRSA ATCC 33591 [6]): 100 µg/mL (≈ 236 µM)
- Minimum inhibitory concentration E. coli [7]: 150 µg/mL (≈ 354 µM)

SMILES: N=C(N)NCCC[C@H](NC(=O)[C@H](Cc1ccc(O)cc1)NC(=O)[C@H](CCCNC(=N)N)NC(=O)[C@H](Cc1ccc2ccccc2c1)NC(=O)[C@@H](N)CCCNC(=N)N)C(=O)N[C@@H](Cc1ccc2ccccc2c1)C(N)=O [Arg-(2-Nal)-Arg-Tyr-Arg-(2-Nal)NH2] (H-R[2Nal]RYR[2Nal]-NH2; N-terminus assumed)
- MBC MRSA (MRSA ATCC 33591 [1]): 5 µg/mL (≈ 4.79 µM)
- MBC MRSE (MRSE ATCC 27626 [2]): 2.5 µg/mL (≈ 2.4 µM)
- MIC S. aureus [3]: 5 µg/mL (≈ 4.79 µM)
- MBC S. aureus [4]: 5 µg/mL (≈ 4.79 µM)
- MIC MRSE (MRSE ATCC 27626 [5]): 2.5 µg/mL (≈ 2.4 µM)
- MIC MRSA (MRSA ATCC 33591 [6]): 2.5 µg/mL (≈ 2.4 µM)
- MIC E. coli [7]: 10 µg/mL (≈ 9.59 µM)
- MBC E. coli [8]: 15 µg/mL (≈ 14.4 µM)

SMILES: N=C(N)NCCC[C@H](NC(=O)[C@@H](N)Cc1c[nH]c2ccccc12)C(=O)OCc1ccccc1 [WR-OBzl] (H-Trp-Arg-OBn; N-terminus assumed)
- MIC P. aerug. (P. aeruginosa): >300.0 µg/mL
- MIC MRSE (MRSE ATCC 27626 [5]): 50.0 µg/mL (≈ 111 µM)
- MIC MRSA (MRSA ATCC 33591 [6]): 37.5 µg/mL (≈ 83.2 µM)

SMILES: N=C(N)NCCC[C@H](NC(=O)[C@@H](N)Cc1ccccc1)C(=O)OCc1ccc(-c2ccccc2)cc1 [FROBip]
- Minimum inhibitory concentration S. aureus [3]: 12.5 µg/mL (≈ 25.6 µM)
- Minimum inhibitory concentration MRSE (MRSE ATCC 27626 [5]): 5 µg/mL (≈ 10.3 µM)
- Minimum inhibitory concentration MRSA (MRSA ATCC 33591 [6]): 12.5 µg/mL (≈ 25.6 µM)
- Minimum inhibitory concentration E. coli [7]: 100 µg/mL (≈ 205 µM)

SMILES: COC(=O)[C@H](Cc1c[nH]c2ccccc12)NC(=O)[C@@H](N)CCCNC(=N)N [RW-OMe] (H-Arg-Trp-OMe; N-terminus assumed)
- MIC S. aureus [3]: >300.0 µg/mL
- MIC MRSE (MRSE ATCC 27626 [5]): 200.0 µg/mL (≈ 534 µM)
- MIC MRSA (MRSA ATCC 33591 [6]): >300.0 µg/mL
- MIC E. coli [7]: >300.0 µg/mL

SMILES: CC(C)(C)[C@H](N)C(=O)N[C@@H](CCCNC(=N)N)C(=O)OCc1ccccc1 [tBuGR-OBzl] (H-[Tle]-Arg-OBn; N-terminus assumed)
- MIC P. aerug. (P. aeruginosa): >300.0 µg/mL
- MIC S. aureus [3]: >300.0 µg/mL
- MIC MRSE (MRSE ATCC 27626 [5]): 150.0 µg/mL (≈ 397 µM)
- MIC MRSA (MRSA ATCC 33591 [6]): 100.0 µg/mL (≈ 265 µM)
- MIC E. coli [7]: >300.0 µg/mL

SMILES: NCCCC[C@H](N)C(=O)N[C@@H](Cc1c[nH]c2ccccc12)C(=O)OCc1ccccc1 [KW-Obzl] (H-Lys-Trp-OBn; N-terminus assumed)
- MIC S. aureus [3]: 37.5 µg/mL (≈ 88.8 µM)
- Minimum inhibitory concentration S. aureus [3]: 37.5 µg/mL (≈ 88.8 µM)
- MIC MRSE (MRSE ATCC 27626 [5]): 25 µg/mL (≈ 59.2 µM)
- Minimum inhibitory concentration MRSE (MRSE ATCC 27626 [5]): 25 µg/mL (≈ 59.2 µM)
- MIC MRSA (MRSA ATCC 33591 [6]): 37.5 µg/mL (≈ 88.8 µM)
- Minimum inhibitory concentration MRSA (MRSA ATCC 33591 [6]): 37.5 µg/mL (≈ 88.8 µM)
- MIC E. coli [7]: >300 µg/mL
- Minimum inhibitory concentration E. coli [7]: >300 µg/mL
